Experimental data: patent publication US10294202B2, “Pyrrolidinones as herbicides” (FMC Corporation, priority 2013, dated 2019)

Experiments:
[1] = system: barnyardgrass; assay: Test A pre-/postemergence herbicide test; assay type: in vivo, Echinochloa crus-galli
Method in brief: (§1)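 Formulated compound (non-phytotoxic solvent, surfactant) sprayed pre- onto soil of seeded loam/sand pots or post- onto seedlings at 1–2 leaves; ~10 d greenhouse; 0–100 visual control rating versus untreated.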

[2] = system: kochia; assay: Test A pre-/postemergence herbicide test; assay type: in vivo, Kochia scoparia
Method in brief: as §1

[3] = system: ragweed; assay: Test A pre-/postemergence herbicide test; assay type: in vivo, Ambrosia elatior
Method in brief: as §1

[4] = system: ryegrass, Italian; assay: Test A pre-/postemergence herbicide test; assay type: in vivo, Lolium multiflorum
Method in brief: as §1

[5] = system: giant foxtail; assay: Test A pre-/postemergence herbicide test; assay type: in vivo, Setaria faberii
Method in brief: as §1

[6] = system: pigweed; assay: Test A pre-/postemergence herbicide test; assay type: in vivo, Amaranthus retroflexus
Method in brief: as §1

[7] = system: wheat; assay: Test A pre-/postemergence herbicide test; assay type: in vivo, Triticum aestivum; settings: Postemergence
Method in brief: as §1

[8] = system: corn; assay: Test A pre-/postemergence herbicide test; assay type: in vivo, Zea mays; settings: Postemergence
Method in brief: as §1

[9] = system: blackgrass; assay: Test A postemergence herbicide test; assay type: in vivo, Alopecurus myosuroides
Method in brief: (§2)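 Blackgrass and galium grown in pots of loam soil–sand blend, treated postemergence at 2–10 cm height, one- to two-leaf stage. Plants kept in greenhouse ~10 days, then visually rated for injury against untreated controls on a 0–100 scale (0 no effect, 100 complete control).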

[10] = system: galium; assay: Test A postemergence herbicide test; assay type: in vivo, Galium aparine
Method in brief: as §2

[11] = system: rice; assay: Test B flooded paddy test; assay type: in vivo, Oryza sativa; settings: 500 g ai/ha, Flood; scale of 0 to 100 where 0 is no effect and 100 is complete control
Method in brief: (§3)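 First, plants reach the 2-leaf stage; next, pots are flooded to 3 cm and compound is delivered into the water; finally, after 13 to 15 greenhouse days at constant depth, injury is graded visually from 0 to 100 against controls.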

[12] = system: sedge, umbrella; assay: Test B flooded paddy test; assay type: in vivo, Cyperus difformis; settings: 500 g ai/ha, Flood; scale of 0 to 100 where 0 is no effect and 100 is complete control
Method in brief: as §3

[13] = system: ducksalad; assay: Test B flooded paddy test; assay type: in vivo, Heteranthera limosa; settings: 500 g ai/ha, Flood; scale of 0 to 100 where 0 is no effect and 100 is complete control
Method in brief: as §3

[14] = system: barnyardgrass; assay: Test B flooded paddy test; assay type: in vivo, Echinochloa crus-galli; settings: 500 g ai/ha, Flood; scale of 0 to 100 where 0 is no effect and 100 is complete control
Method in brief: as §3

[15] = Postemergence, 125 g ai/ha, visual rating on 0 to 100 scale (0 no effect, 100 complete control), approx. 10 days
[16] = Postemergence, 500 g ai/ha, 0 to 100 scale (0 no effect, 100 complete control)
[17] = Preemergence, 125 g ai/ha, 0 to 100 scale where 0 is no effect and 100 is complete control
[18] = preemergence, 500 g ai/ha, 0 to 100 scale, 0 is no effect and 100 is complete control
[19] = Preemergence, 500 g ai/ha, visual rating on 0 to 100 scale (0 no effect, 100 complete control)
[20] = 125 g ai/ha, visual rating on 0 to 100 scale (0 no effect, 100 complete control), approx. 10 days
[21] = 500 g ai/ha, 0 to 100 scale (0 no effect, 100 complete control)

Structure (SMILES)	Plant response rating, Barnyardgrass [1, 15]	Plant response rating, Barnyardgrass [1, 16]	Plant response rating, Barnyardgrass [1, 17]	Plant response rating, Barnyardgrass [1, 18]	Plant response rating, Kochia [2, 15]	Plant response rating, Kochia [2, 16]	Plant response rating, Kochia [2, 17]	Plant response rating, Kochia [2, 18]	Plant response rating, Ragweed [3, 15]	Plant response rating, Ragweed [3, 16]	Plant response rating, Ragweed [3, 17]	Plant response rating, Ragweed [3, 18]	Plant response rating, Ryegrass, Italian [4, 15]	Plant response rating, Ryegrass, Italian [4, 16]	Plant response rating, Ryegrass, Italian [4, 17]	Ryegrass, Italian plant response rating [4, 19]	Plant response rating, Foxtail, Giant [5, 15]	Plant response rating, Foxtail, Giant [5, 16]	Plant response rating, Foxtail, Giant [5, 17]	Plant response rating, Foxtail, Giant [5, 18]	other results
O=C1NCC(c2ccc(Cl)o2)C1C(=O)Nc1cccc(F)c1F (centres unmarked) [Compound 285]	20	70	0	0	0	0	0	0	0	0	0	0	0	0	0	0	0	0	0	10	Plant response rating, Pigweed [6, 15]: 0; Plant response rating, Pigweed [6, 16]: 0; Plant response rating, Pigweed [6, 17]: 0; Plant response rating, Pigweed [6, 18]: 0; Plant response rating, Wheat [7, 20]: 0; Plant response rating, Wheat [7, 21]: 0; Plant response rating, Corn [8, 20]: 0; Plant response rating, Corn [8, 21]: 0; Plant response rating, Blackgrass [9, 20]: 0; Plant response rating, Blackgrass [9, 21]: 0; Plant response rating, Galium [10, 20]: 0; Plant response rating, Galium [10, 21]: 0; Plant response rating, Rice [11]: 0; Plant response rating, Sedge, Umbrella [12]: 0; Plant response rating, Ducksalad [13]: 100; Plant response rating, Barnyardgrass [14]: 20
O=C1NCC(c2ccc(Cl)c(Cl)c2)C1C(=O)Nc1ccc(F)c(F)c1F (centres unmarked) [Compound 286]	60	60	60	60	0	20	30	40	0	0	0	0	0	20	0	20	60	70	80	80	Plant response rating, Pigweed [6, 15]: 0; Plant response rating, Pigweed [6, 16]: 0; Plant response rating, Pigweed [6, 17]: 20; Plant response rating, Pigweed [6, 18]: 30; Plant response rating, Wheat [7, 20]: 0; Plant response rating, Wheat [7, 21]: 0; Plant response rating, Corn [8, 20]: 0; Plant response rating, Corn [8, 21]: 0; Plant response rating, Blackgrass [9, 20]: 0; Plant response rating, Blackgrass [9, 21]: 0; Plant response rating, Galium [10, 20]: 0; Plant response rating, Galium [10, 21]: 0; Plant response rating, Rice [11]: 10; Plant response rating, Sedge, Umbrella [12]: 0; Plant response rating, Ducksalad [13]: 75; Plant response rating, Barnyardgrass [14]: 15
CSc1cccc(C2CNC(=O)C2C(=O)Nc2ccccc2F)c1 (centres unmarked) [Compound 287]	50	80	50	80	0	0	0	0	0	0	0	0	0	0	0	0	0	0	50	80	Plant response rating, Pigweed [6, 15]: 0; Plant response rating, Pigweed [6, 16]: 0; Plant response rating, Pigweed [6, 17]: 0; Plant response rating, Pigweed [6, 18]: 0; Plant response rating, Wheat [7, 20]: 0; Plant response rating, Wheat [7, 21]: 0; Plant response rating, Corn [8, 20]: 0; Plant response rating, Corn [8, 21]: 0; Plant response rating, Blackgrass [9, 20]: 0; Plant response rating, Blackgrass [9, 21]: 0; Plant response rating, Galium [10, 20]: 0; Plant response rating, Galium [10, 21]: 0; Plant response rating, Rice [11]: 0; Plant response rating, Sedge, Umbrella [12]: 0; Plant response rating, Ducksalad [13]: 75; Plant response rating, Barnyardgrass [14]: 30
CSc1cccc(C2CNC(=O)C2C(=O)Nc2cccc(F)c2F)c1 (centres unmarked) [Compound 289]	50	70	50	80	0	0	0	0	0	0	0	0	0	0	0	0	30	60	60	90	Plant response rating, Pigweed [6, 15]: 0; Plant response rating, Pigweed [6, 16]: 0; Plant response rating, Pigweed [6, 18]: 0; Plant response rating, Wheat [7, 20]: 0; Plant response rating, Wheat [7, 21]: 0; Plant response rating, Corn [8, 20]: 0; Plant response rating, Corn [8, 21]: 0; Plant response rating, Blackgrass [9, 20]: 0; Plant response rating, Blackgrass [9, 21]: 0; Plant response rating, Galium [10, 20]: 0; Plant response rating, Galium [10, 21]: 0; Plant response rating, Rice [11]: 20; Plant response rating, Sedge, Umbrella [12]: 0; Plant response rating, Ducksalad [13]: 90; Plant response rating, Barnyardgrass [14]: 30
